# Laboratory results published in patent publication US8633208B2, “6-1H-imidazo-quinazoline and quinolines derivatives, new MAO inhibitors and imidazoline receptor ligands” (Rottapharm S.p.A, priority 2008, dated 2014).
# Where a name gives a salt, the structure may show the parent alone. Read-outs that look alike come from different tables or passages of the source.
# What was measured:
# [1] = molecular target: human recombinant MAO-B (Homo sapiens (Human), UniProt P27338); assay: Monoaminooxidase (MAO) activity assay, MAO-Glo luminescent method, MAO-B
# Sequence of human recombinant MAO-B (P27338 whole entry): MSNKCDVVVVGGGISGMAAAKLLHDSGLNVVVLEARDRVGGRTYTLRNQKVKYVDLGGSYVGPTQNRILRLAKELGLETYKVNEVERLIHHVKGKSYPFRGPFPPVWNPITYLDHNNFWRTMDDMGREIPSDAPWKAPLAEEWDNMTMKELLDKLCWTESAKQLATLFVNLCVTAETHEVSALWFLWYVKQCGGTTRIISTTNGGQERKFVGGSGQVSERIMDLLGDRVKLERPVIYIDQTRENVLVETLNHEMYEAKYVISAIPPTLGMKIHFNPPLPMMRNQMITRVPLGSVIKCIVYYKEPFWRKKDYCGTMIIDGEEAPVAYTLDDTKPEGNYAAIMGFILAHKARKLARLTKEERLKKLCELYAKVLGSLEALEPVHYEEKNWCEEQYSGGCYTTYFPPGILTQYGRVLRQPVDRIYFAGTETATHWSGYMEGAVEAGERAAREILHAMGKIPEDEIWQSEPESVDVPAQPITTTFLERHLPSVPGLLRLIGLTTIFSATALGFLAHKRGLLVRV
# [2] = molecular target: I2 Imidazoline Receptor; assay: Binding study towards I2 imidazoline receptor subtype in rat brain ([3H]2-BFI displacement); settings: read-out: [3H]2-BFI binding IC50; rat whole brain membranes, [3H]-2BFI 2.5x10-9 M, 90 min at 25° C.
# Description: Binding Study Towards I2 Imidazoline Receptor Subtype in Rat Brain.
# Male Wistar rats (240-300 g, Harlan, Italy) were sacrificed by decapitation. Whole brains were immediately removed on ice and homogenised in 10 volumes of buffered sucrose (0.32M in 50 mM Tris-HCl, pH 7.4 at 4° C.) using a motor driven Teflon-glass homogeniser. The homogenate was centrifuged at 1000×g for 10 min at 4° C. The resultant supernatants were pooled and centrifuged at 32000×g for 20 min at 4° C. The supernatants were discarded and each pellet suspended in 10 volumes of assay buffer (50 mM Tris-HCl, 1 mM MgCl2, pH 7.4 at 4° C.) and spun at 32000×g for 20 min at 4° C. The pellets were washed twice by repeated centrifugation at 32000×g for 20 min at 4° C. The final pellets were stored at −80° C. until use. Prior to radioligand binding studies, membrane pellets were thawed and washed a further 4 times by re-suspension in 10 volumes of assay buffer (as above) and repeated centrifugation to remove any possible endogenous inhibitors of binding. […] Non specific binding was determined in the presence of 10^-5 M BU224 (Tocris Bioscience). The incubation, in a final volume of 1 ml, was performed in polystyrene multiwell 24, started adding membranes suspension and was carried out for 90 min at 25° C. With the exception of total binding and non specific binding, all concentration points were performed in duplicate. Compounds were tested in 3-5 different concentrations, ranging from 10^-10 M to 10^-5 M final concentration.
# [3] = molecular target: human recombinant MAO-A (Homo sapiens (Human), UniProt P21397); assay: Monoaminooxidase (MAO) activity assay, MAO-Glo luminescent method, MAO-A
# Sequence of human recombinant MAO-A (P21397 whole entry): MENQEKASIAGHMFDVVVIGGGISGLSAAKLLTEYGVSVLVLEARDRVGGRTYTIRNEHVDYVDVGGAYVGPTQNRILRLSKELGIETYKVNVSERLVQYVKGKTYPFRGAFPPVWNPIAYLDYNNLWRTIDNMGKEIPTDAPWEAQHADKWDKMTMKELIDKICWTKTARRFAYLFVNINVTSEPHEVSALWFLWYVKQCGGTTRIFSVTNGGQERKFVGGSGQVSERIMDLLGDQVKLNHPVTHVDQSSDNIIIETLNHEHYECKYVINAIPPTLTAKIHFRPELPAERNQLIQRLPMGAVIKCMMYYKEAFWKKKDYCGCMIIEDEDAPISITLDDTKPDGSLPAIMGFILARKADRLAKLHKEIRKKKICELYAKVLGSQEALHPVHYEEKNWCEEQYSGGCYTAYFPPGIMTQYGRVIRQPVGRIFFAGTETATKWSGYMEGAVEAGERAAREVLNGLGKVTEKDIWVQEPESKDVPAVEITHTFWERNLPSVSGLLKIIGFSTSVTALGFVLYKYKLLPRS
# Description: Monoaminooxidase (MAO) Activity Assay.
# Inhibitory activity of compounds was evaluated by a homogeneous luminescent method, the MAO-Glo™ Assay (Promega), measuring the monoamine oxidase activity (MAOs) from recombinant source (microsomes from baculovirus infected insect cells, Sigma). Experiments were performed according to the Supplier's procedure, incubating human recombinant MAO-A or MAO-B with a luminogenic substrate, a derivative of beetle luciferin ((4S)-4,5-dihydro-2-(6-hydroxybenzothiazolyl)-4-thiazolecarboxylic acid). […] The MAO-Glo™ Assay was performed in two steps:
# Step 1. The MAO reaction: MAO substrate was incubated with MAO-A or MAO-B (1 μg/sample) in the absence (Total activity) or presence (modulated activity) of test compounds. Total activity was determined in the presence the appropriate solvent. […] Reaction started adding the enzyme solution and samples were incubated for 60 min at room temperature. For negative control reaction, samples of MAO reaction buffer (100 mM Hepes, 5% glycerol, pH 7.5) indeed the test compound were included. For MAO-B activity assay, MAO reaction buffer contain 10% DMSO, in order to increase enzymatic activity. Step 2. […] At the end of incubation 50 μl of Luciferin Detection reagent were added to each well, plate was incubated at room temperature for 20 min, then luminescent signal was detected by luminometer (integration time 0.25-1 sec per well). […] Net MAO-dependent luminescence (net RLU) were calculated by subtracting the average luminescence of the negative control reaction without MAO enzyme. A reduction of net signal in the presence of test compound, with respect to total activity, reflect its effect on MAOs activity. […] A percentage of inhibition for each concentration tested were calculated and the IC50 value was estimated by linear regression.
# [4] = test system: CD1 Mice; assay: Tail suspension test in mice; format: in vivo; settings: Table 3; for MPE (% inhibition in immobility time): 30 min before the test
# Description: Tail Suspension Test in Mice
# To evaluate novel antidepressants compounds several animal models have been developed. […] The antidepressant effect of representative examples of compounds of formula (I) has been evaluated according to the procedure below. The immobility was induced according to the procedure of Stem et al. (1985). CD1 Mice (Harlan, Italy) were individually suspended 75 cm above the top with an adhesive tape placed 1 cm from the tip of the tail. Immobility duration was recorded for 5 min. Mice were considered immobile only when they hung passively and completely motionless. Compounds were given orally, 30 min before the test at doses ranging between 0.3 and 30 mg/kg. Data collected were expressed as mean percent effect (MPE), which represents the % of inhibition in immobility time between the animals treated with representative compounds of formula (I) and the controls that received only the vehicle.
# [5] = read-out: MAO A activity IC50, human recombinant MAO-A, substrate 40 μM, 60 min room temperature
smiles,measurement,setting,value
"Cc1cn(-c2ccc3nc(-c4ccc5c(c4)OCO5)ncc3c2)cn1 (as salt: hydrochloride) [Example 9, [6-(4-methyl-1H-imidazol-1-yl)-2-(1,3-benzodioxol-5-yl)]quinazoline]",melting point,,215.3 to 218.7 °C
"Cc1cn(-c2ccc3nc(-c4ccoc4)ncc3c2)cn1 [Example 12, [6-(4-methyl-1H-imidazol-1-yl)-2-(3-furyl)]quinazoline]",melting point,,160.5 to 163.2 °C
"COc1ccc(-c2ncc3cc(-n4ccnc4C)ccc3n2)cc1 (as salt: hydrochloride) [Example 3, [6-(2-methyl-1H-imidazol-1-yl)-2-(4-methoxyphenyl)]quinazoline]",melting point,,198.3 to 200.3 °C
c1ccc(-c2ccc3cc(-n4ccnc4)ccc3n2)cc1 [Example 17],IC50,[1]; read-out: MAO B activity IC50,10 µM
same,IC50,[2],0.42 µM
"COc1ccc(-c2ccc3cc(-n4ccnc4C)ccc3n2)cc1 (as salt: hydrochloride) [Example 26, [6-(2-methyl-1H-imidazol-1-yl)-2-(4-methoxyphenyl)]quinoline dihydrochloride]",melting point,,230 °C (dec.)
"c1ccc2oc(C3=NCCN3)cc2c1 [Example 2-BFI, 2-benzofuranylimidazoline, reference compound]",IC50,[2],0.007 µM
same,IC50,[3]; [5],> 1 µM
"COc1ccc(-c2ncc3cc(-n4cnc(C)c4)ccc3n2)cc1 [Example 6, [6-(4-methyl-1H-imidazol-1-yl)-2-(4-methoxyphenyl)]quinazoline]",IC50,[1],> 10 µM
same,IC50,[2],1.16 µM
same,IC50,[3],> 10 µM
"Cc1cn(-c2ccc3nc(-c4ccc5c(c4)OCO5)ncc3c2)cn1 [Example 9, [6-(4-methyl-1H-imidazol-1-yl)-2-(1,3-benzodioxol-5-yl)]quinazoline]",IC50,[1],> 10 µM
same,IC50,[2],1.04 µM
same,IC50,[3],> 10 µM
"N=C(N)NCCCCN [Agmatine, reference compound]",IC50,[1],> 100 µM
same,IC50,[2],> 10 µM
same,IC50,[3],> 100 µM
"COc1ccccc1-c1ccc2cc(-n3ccnc3C)ccc2n1 (as salt: hydrochloride) [Example 27, [6-(2-methyl-1H-imidazol-1-yl)-2-(2-methoxyphenyl)]quinoline dihydrochloride]",melting point,,235 °C (dec.)
"CN(C)c1ccc(-c2ccc3cc(-n4ccnc4)ccc3n2)cc1 (as salt: hydrochloride) [Example 22, [6-(1H-imidazol-1-yl)-2-(4-dimethylaminophenyl)]quinoline trihydrochloride]",melting point,,284 to 286 °C
"COc1ccc(-c2ccc3cc(-n4ccnc4)ccc3n2)cc1 [Example 18, [6-(1H-imidazol-1-yl)-2-(4-methoxyphenyl)]quinoline dihydrochloride]",IC50,[1],> 10 µM
same,IC50,[2],1.9 µM
same,IC50,[3]; [5],0.67 µM
"CSc1ccc(-c2ccc3cc(-n4cnc(C)c4)ccc3n2)cc1 (as salt: hydrochloride) [Example 33, [6-(4-methyl-1H-imidazol-1-yl)-2-(4-methylthiophenyl)]quinoline dihydrochloride]",melting point,,294 to 296 °C
"Fc1ccc(-c2ccc3cc(-n4ccnc4)ccc3n2)cc1 (as salt: hydrochloride) [Example 21, [6-(1H-imidazol-1-yl)-2-(4-fluorophenyl)]quinoline dihydrochloride]",melting point,,280.7 to 282 °C
"Cc1nccn1-c1ccc2nc(-c3ccoc3)ccc2c1 (as salt: hydrochloride) [Example 28, [6-(2-methyl-1H imidazol-1-yl)-2-(3-furyl)]quinoline dihydrochloride]",melting point,,240.1 to 243.2 °C
"FC(F)(F)Oc1ccc(-c2ccc3cc(-n4ccnc4)ccc3n2)cc1 (as salt: hydrochloride) [Example 23, [6-(1H-imidazol-1-yl)-2-(4-trifluoromethoxyphenyl)]quinoline dihydrochloride]",melting point,,260 to 262 °C
"Cc1cncn1-c1ccc2nc(-c3ccccc3)ncc2c1 (as salt: hydrochloride) [Example 5, [6-(5-methyl-1H-imidazol-1-yl)-2-phenyl]quinazoline]",melting point,,138.5 to 139.1 °C
"C#CCN(C)[C@H](C)Cc1ccccc1 [Deprenyl, reference compound]",IC50,[2],2.31 µM
"C#CCN(C)CCCOc1ccc(Cl)cc1Cl [Clorgyline, reference compound]",IC50,[2],1.53 µM
"Cc1cc(OC(F)(F)F)ccc1-c1ccc2cc(-n3ccnc3)ccc2n1 [Example 24, [6-(1H-imidazol-1-yl)-2-(2-methyl-4-trifluoromethoxyphenyl)]quinoline dihydrochloride]",IC50,[1],> 10 µM
same,IC50,[2],1.14 µM
same,IC50,[3]; [5],0.28 µM
"COc1ccccc1-c1ccc2cc(-n3ccnc3)ccc2n1 (as salt: hydrochloride) [Example 19, [6-(1H-imidazol-1-yl)-2-(2-methoxyphenyl)]quinoline dihydrochloride]",melting point,,251.5 to 252 °C
"c1cn(-c2ccc3nc(-c4ccc5c(c4)OCO5)ncc3c2)cn1 [Example 13, [6-(1H-imidazol-1-yl)-2-(1,3-benzodioxol-5-yl)]quinazoline]",IC50,[1],> 10 µM
same,IC50,[2],1.34 µM
same,IC50,[3]; [5],10 µM
"c1cn(-c2ccc3nc(-c4ccc5c(c4)OCCO5)ncc3c2)cn1 [Example 15, [6-(1H-imidazol-1-yl)-2-(2,3-dihydro-1,4-benzodioxin-6-yl)]quinazoline]",IC50,[1],> 10 µM
same,IC50,[2],0.5 µM
same,IC50,[3],> 10 µM
"Cc1cn(-c2ccc3nc(-c4ccc(F)cc4)ccc3c2)cn1 (as salt: hydrochloride) [Example 32, [6-(4-methyl-1H-imidazol-1-yl)-2-(4-fluorophenyl)]quinoline dihydrochloride]",melting point,,264 to 268 °C
"c1cn(-c2ccc3nc(-c4ccoc4)ccc3c2)cn1 (as salt: hydrochloride) [Example 20, [6-(1H-imidazol-1-yl)-2-(3-furyl)]quinoline dihydrochloride]",melting point,,293.1 to 295.6 °C
"CS(=O)(=O)c1ccc(-c2ccc3cc(-n4ccnc4)ccc3n2)cc1 [Example 25, [6-(1H-imidazol-1-yl)-2-(4-methanesulfonylphenyl)]quinoline dihydrochloride]",IC50,[1],> 10 µM
same,MPE (% inhibition in immobility time),[4]; dose 3 mg/Kg OS,23%
same,MPE (% inhibition in immobility time),[4]; dose 10 mg/Kg OS,54%
same,MPE (% inhibition in immobility time),[4]; dose 30 mg/Kg OS,40%
same,ED50,"[4]; dose yielding 50% reduction of immobility, oral",8.7 mg/Kg; OS
"Cc1cc(OC(F)(F)F)ccc1-c1ccc2cc(-n3ccnc3)ccc2n1 (as salt: hydrochloride) [Example 24, [6-(1H-imidazol-1-yl)-2-(2-methyl-4-trifluoromethoxyphenyl)]quinoline dihydrochloride]",melting point,,269.7 to 274.5 °C
"Cc1nccn1-c1ccc2nc(-c3ccccc3)ccc2c1 (as salt: hydrochloride) [Example 29, [6-(2-methyl-1H imidazol-1-yl)-2-(phenyl)]quinoline dihydrochloride]",melting point,,296 to 297 °C
"Cc1cn(-c2ccc3nc(-c4ccc(S(C)(=O)=O)cc4)ncc3c2)cn1 (as salt: hydrochloride) [Example 11, [6-(4-methyl-1H-imidazol-1-yl)-2-(4-methanesulfonylphenyl)]quinazoline]",melting point,,276.4 to 281.7 °C
"COc1ccc(-c2ncc3cc(-n4cnc(C)c4)ccc3n2)cc1 (as salt: hydrochloride) [Example 6, [6-(4-methyl-1H-imidazol-1-yl)-2-(4-methoxyphenyl)]quinazoline]",melting point,,201 to 202 °C
"COc1ccc(-c2ccc3cc(-n4ccnc4)ccc3n2)cc1 (as salt: hydrochloride) [Example 18, [6-(1H-imidazol-1-yl)-2-(4-methoxyphenyl)]quinoline dihydrochloride]",melting point,,266 to 267 °C
"COc1ccc(-c2ccc3cc(-n4cnc(C)c4)ccc3n2)cc1 (as salt: hydrochloride) [Example 31, [6-(4-methyl-1H-imidazol-1-yl)-2-(4-methoxyphenyl)]quinoline dihydrochloride]",melting point,,276 to 278 °C (dec.)
"COc1cccc(-c2ncc3cc(-n4cnc(C)c4)ccc3n2)c1 [Example 8, [6-(4-methyl-1H-imidazol-1-yl)-2-(3-methoxyphenyl)]quinazoline]",melting point,,294 to 296 °C
